Measurements taken from patent EP4653001A1, “TREATMENT, DIAGNOSIS AND/OR PROGNOSIS OF MITOCHONDRIAL DISEASES” (Universidad Autónoma de Madrid, priority 2024, dated 2025).

Experiments:
primary neurons [1] = experiment: Neuronal death; assay type: cell-based, mouse; conditions: CI inhibition
primary neurons [2] = experiment: Intracellular calcium mobilization (excitability) assay; assay type: cell-based, mouse; conditions: CI inhibition
Method: Neuronal functionality was measured by the Rhod-4 No Wash Calcium Assay Kit (Abcam, Cat No. ab112157), following the manufacturer's instructions for intracellular calcium assay. In short, culture medium was removed, and Rhod-4 dye containing buffer was gently added to cells, followed by incubation at 37 degrees for 30 min followed by 20 min at room temperature. For imaging and quantification of intracellular calcium mobilization, confocal images were acquired using a Zeiss LSM800 confocal microscope (Jena, Alemania) enabled with a 10X objective. Time lapse images of the confocal scan were acquired every 0.5 second over a ten-minute period. Neuronal cultures were treated with 100mM KCl (final concentration) added after the first 4 minutes to establish a baseline and observe the steady- state changes in calcium mobilization in response to the treatment. Acquired confocal images were post-processed using the free and open-source Fiji image processing software. Fluorescent intensity changes were quantified using fixed parameters across the entire set of captured images.

143B cells = experiment: Stable isotope tracing with uniformly labeled 13C-glucose; assay type: cell-based
Method: 1-5.0×10^6 cells were harvested on dry ice with 1 mL pre-chilled 80% HPLC-grade methanol (Fluka Analytical). The cell mixture was incubated for 15 min on dry ice prior to centrifugation at 18,000 × g for 10 min at 4°C. The supernatant was retained, and the remaining cell pellet was resuspended in 800 µL chilled 80% methanol and centrifuged. Supernatant was combined with the previous retention and was lyophilized using a SpeedVac (Thermo Fisher). Lyophilized samples were resuspended in 20 µL ultrapure water and subjected to metabolomics profiling using the AB/SCIEX 5500 QTRAP triple quadrupole instrument. Data analysis was performed using the GiTools software. […]
Encouraged by the beneficial effects of ME1 and because ME1-dependent NADPH production is linked to intracellular malate levels, we sought to investigate the metabolic pathways and nutrients that maintain malate production upon disruption of the ETC. It is firmly believed that in cells and tissues with defective ETC function, elevated NADH/NAD+ ratio inhibits the Pyruvate dehydrogenase complex (PDC), suppressing pyruvate entry into the mitochondria and forcing its channelling towards the Lactate Dehydrogenase (LDH) in the cytosol. […] This reaction involves addition of an unlabeled carbon by IDH2 acting in reverse relative to the canonical oxidative TCA cycle. Malate M+3 also rose more than a ~2-fold in CI-inhibited cells and was likely formed after cleavage of citrate M+5 by ATP-citrate lyase (ACLY) since this induction was blunted in ACLY KO cells. […] We hypothesized that an alternative mechanism could involve pyruvate entry into the mitochondria where it can be carboxylated to OAA by the pyruvate carboxylase (PC). […] To examine the contribution of PC to malate formation in the context of ETC dysfunction, control and PC KO cells were cultured with uniformly labeled [^13C]glucose and treated either with DMSO or Piericidin. In this labeling scheme, oxidative metabolism of glucose-derived pyruvate would give rise to TCA cycle intermediates with M+2 labeling as CO2 is removed during conversion of pyruvate to acetyl-CoA by pyruvate dehydrogenase (PDH). By contrast, carbon labels are retained if pyruvate is carboxylated by PC and would generate M+3 intermediates (Figure 3A). […] Malate and aspartate M+3/M+2 ratios, which reflect the relative contribution of PC versus PDH to metabolite labeling, were ~7-fold and ~10-fold higher respectively, in cells treated with Piericidin (Figure 3B and C). […] In this regard, it is not surprising that PC activity is favoured over PDH when the ETC is defective as it is not regulated by NADH levels.

primary neurons [3] = experiment: Patch-clamp capacitance analysis; assay type: cell-based, mouse; conditions: CI inhibition
Method: A glass coverslip containing mixed cortical cultures of 10-14 DIV was placed in an immersion chamber constantly perfused with aCSF (119 mM NaCl, 2.5 mM KCl, 2.5 mM CaCl2, 1.2 mM MgCl2, 26 mM NaHCO3, 1 mM NaH2PO4, 11 mM glucose pH adjusted to 7.4 and osmolarity to 290 ±5 mOsm) gassed with carbogen (5-10% CO2, 90-95% O2) and its temperature closely monitored at 29°C. Cells were recorded under current-clamp configuration with patch recording glass electrodes (4-6 MΩ) composed of silver/silver chloride electrodes inserted in glass pipettes filled with internal solution (115 mM K gluconate, 20 mM KCl, 10 mM HEPES, 2 mM MgCl2, 4 mM Na2-ATP, 0.3 mM Na3-GTP pH adjusted to 7.2-7.3 and osmolarity to 290 ±5 mOsm). Resting membrane potential was directly acquired from these recordings. Voltage responses to current injections of -100 pA were used to calculate whole-cell input resistance and membrane capacitance. This last parameter is calculated from the exponential time constant (τ) of the voltage change, as τ=R*C (R: input resistance, C: capacitance).
Data acquisition was carried out with MultiClamp 700 A/B amplifiers and pCLAMP 9/10 software (Molecular Devices). Data analysis was performed using Clampfit software (Molecular Devices).

[4] = uniformly labeled [13C]glucose, vs DMSO

## CC=C(C)C(O)C(C)C=C(C)C=CCC(C)=CCc1nc(OC)c(OC)c(O)c1C (stereo not shown) [Piericidin, Piericidin A]
Primary neurons [1]
  neuronal death: did not correspond to an increase
Primary neurons [2]
  excitability response: diminished
143B cells; control and PC KO cells
  PDH-dependent labeling of aspartate and malate: clearly reduced
143B cells; particularly aspartate and malate
  PC-mediated labeling of TCA cycle intermediates: marked induction
143B cells; [4]
  Malate M+3/M+2 ratio, higher: ~ 7 fold
  aspartate M+3/M+2 ratio, higher: ~ 10 fold
Primary neurons [3]
  capacitance: lower
